“And” between values parts separate entries of the source, which are not always exact repeats. Equal values may be shown once. “Also recorded” adds a separate entry of the source. Ends that are not written are not given here.

Assay [1] relates to magnesium deficient erythrocytes. In words: Promotion of magnesium binding in magnesium depleted erythrocyte membranes (in vitro screen). The assay is classed as cell-based, human. To be noted: for Magnesium Binding: aged Mg-deficient human erythrocytes incubated in 5 mL medium, 37° C., three hours, peptide amount equimolar to 6 ugm Substance P, quadruplet mean (n) or duplicate values; for measurable binding of magnesium ions to the erythrocyte membrane (in words): uptake in excess of that with KRPG alone; for activity relative to Substance P in promoting magnesium binding / correcting the MgBD: equal molar amounts tested; for approximate ratios of binding activities: magnesium uptake in excess of KRPG alone, normal plasma = 1. As to the method: In order to identify those substances which promote binding of magnesium ion to plasma membranes (tightly bound magnesium ion) and that ameliorate or correct the magnesium binding defect, a deficit of membrane tightly bound magnesium was created experimentally in erythrocytes without the magnesium binding defect. Human erythrocytes were obtained from blood samples that had been drawn two days previously and kept for varying periods of time at room temperature, or at approximately 5° C. Preferred results were obtained with those samples in which either sodium citrate or sodium heparin was the anticoagulant. The length of time held and time held before moving to room temperature or 5° C is not believed to be critical. Although it was possible to create the MgBD in cells held as above, more reproducible results would be expected if fresh drawn blood were to be used.
The following procedure was employed to generate a deficit of plasma membrane tightly bound magnesium ion in the erythrocytes. Art recognized adaptations of this procedure can be used for generation of a deficit in other somatic cells, such as from urine or buccal cells. Samples of blood described above were kept at room temperature overnight and then pooled in a beaker placed in crushed ice and the blood was stirred slowly to collect any fibrin that may have formed. The blood was then centrifuged (600×g, 15 minutes) at 5° C. and the plasma layer removed by aspiration. Residual plasma was removed from the cells by suspending them twice in equal volumes of cold normal saline and then twice in equal volumes of cold Alsever's solution (trisodium citrate 32.5 mM, citric acid 2.7mM, D-glucose 114 mM, NaCl 137 mM, pH 6.1). Finally, the washed cells were suspended again in an equal volume of the same Alsever's solution to which approximately 1.25 mg/ml of sodium deoxycholate was added. This suspension was filtered through cheese cloth and kept at 4° C. with gently mixing once each day. Although the Alsever's plus sodium deoxycholate solution is a preferred example of a holding solution, any cell stabilizing buffer plus sodium deoxycholate may be utilized in the practice of the invention.
The concentration of magnesium ion tightly bound to the erythrocyte membranes was determined by using 5 mL portions of the approximately two day old blood sample and the stored erythrocyte suspension. After these portions were centrifuged as above and the supernatant fluids aspirated, the residues of cells were suspended four times in 15 mL portions of cold hemolyzing buffer (Tris Tris HCl 5 mM, sucrose 14 mM, pH 7.4) and centrifuged (15,000×g, 15 minutes). The supernatant fluids were removed by gentle aspiration. The decanting procedure was repeated as necessary to remove all of the dark red residue (Example 1). The penultimate residue was resuspended by gently pouring the hemolyzing buffer onto the residue and decanting the readily suspended cell membranes from the small, dark red, dense residue which adhered to the centrifuge tube. The final, nearly colorless residue of membranes was transferred and brought to a total volume of 25 mL in a volumetric flask using the hemolyzing buffer. These preparations of erythrocyte membranes were stored at 4° C. until the total protein contents were determined by the Bicinchoninic Acid procedure and the total magnesium contents determined by atomic absorption spectroscopy. From these values the concentrations of tightly bound magnesium in the cell membranes were expressed as nanograms of magnesium per 0.50 mg of membrane protein. This determination of the magnesium binding was repeated each day or so until the level of binding first ceased to decrease.
Preparations of aged erythrocytes in which the MgBD has been developed were used as soon as possible in incubations with normal blood plasma, and other magnesium containing fluids, in search of substances which could correct the MgBD (Example 7). […]

Assay [2] relates to Sprague-Dawley rats. In words: Systolic blood pressure after i.v. peptide, tail-cuff method, normotensive control rats. The assay is classed as in vivo, rat. As to the method:
(§1) In this procedure the systolic blood pressure was measured in conscious animals by using the photoelectric, tail-cuff, compression method as follows. The animal was placed in an incubator at 40° for twenty minutes in order to elevate its body temperature. The cuff, which was placed around the tail, included sensor which provided the pressure signal which was recorded onto a chart. After the pre-injection pressure was recorded, the animal was immediately injected through the tail vein with 168 uL of a freshly prepared solution of the tetrapeptide (SEQ ID NO:2) in normal saline.
(§2) In the initial experiments, the blood pressure was recorded at 5, 10, 30, 60 and 300 minutes after the administration of the tetrapeptide. There was no further decrease in the blood pressure after 10 minutes and the blood pressure returned to the pre-injection level within 60 minutes. Therefore, in further experiments, the blood pressure of each animal was recorded 10 minutes after the injection of the tetrapeptide.

The subject of assay [3] is erythrocytes from essential hypertensive patients. In words: Remediation of magnesium binding defect in vitro, erythrocytes from essential hypertensive patients. The class given is cell-based, human. To be noted: incubated for 3 hrs. at 37° C. As to the method:
The effect of the tetrapeptide (SEQ ID NO:2) and pentapeptide (SEQ ID NO:1) on the binding of magnesium by the erythrocyte membrane was ascertained by measuring the magnesium contents of ghosts after the erythrocytes from essential hypertensive patients and normal controls were incubated with one or both of the peptides. For this purpose, two 10 ml samples of heparinized blood from essential hypertensive subjects were utilized. After the plasma was separated from the erythrocytes, the erythrocytes were washed twice with 10 ml of cold erythrocyte wash and the peptides were then added to the erythrocytes from the hypertensive subjects and the mixtures were incubated for 3 hrs. at 37° C., chilled on ice and the erythrocyte ghosts were prepared and analyzed for magnesium and protein as described in Example 1.

The test system of assay [4] is SS/Jr rats. Kind of assay: Systolic blood pressure after i.v. tetrapeptide, tail-cuff method, hypertensive rats. The class given is in vivo, rat. The protocol:
as §1, §2

Assay [5] relates to SS/Jr rats. In words: Plasma glucose (anthrone method) after i.v. tetrapeptide, SS/Jr rats. The assay is classed as in vivo, rat. To be noted: 3.0 ugm/kg i.v., 30 minutes. The protocol: (§3) The rats were allowed to rest for one day and then one-half of the SS/Jr and one-half of the Sprague-Dawley rats were injected as above with 3.0 ugm/kg of the tetrapeptide (SEQ ID NO:2). All of the rats were sacrificed by decapitation 30 minutes later and the blood from each rat was collected in a centrifuge tube containing sufficient heparin to prevent clotting. The blood samples were centrifuged (1,000×g, 20 minutes) at 5° C. and the individual plasma layers were removed and frozen. The residues of erythrocytes were suspended three times in cold, normal saline and then were hemolyzed by the addition of 15 mL of cold hemolyzing buffer (10 mM Tris Tris HCl, pH 7.4). This buffer was then used in the isolation of the erythrocyte membranes from these hemolysates and in the determination of their total magnesium and protein contents as described above.
(§4) The glucose concentrations in the reserved plasma samples were determined by the anthrone method (Rendina, 1971). The concentrations in the injected SS/Jr rats were not different from those of the SS/Jr rats which were not injected with the tetrapeptide. This was also the case with the Sprague-Dawley control rats. Thus, the values of the SS/Jr rats were combined and compared with the combined, control values of the Sprague-Dawley rats as follows: 149.2±7.5 (15) vs. 100.7±11.2 (4) mg/100 mL., P<0.01. […]

Assay [6] relates to Sprague-Dawley rats. In words: Tightly bound magnesium in erythrocyte membranes after i.v. tetrapeptide, normotensive control rats. The class given is in vivo, rat. To be noted: intravenous administration. The protocol:
as §3

Assay [7] has as its system Sprague-Dawley rats. Kind of assay: Plasma glucose (anthrone method) after i.v. tetrapeptide, Sprague-Dawley rats. The assay is classed as in vivo, rat. To be noted: 3.0 ugm/kg i.v., 30 minutes. As to the method:
as §3, §4

Assay [8] relates to SS/Jr rats. In words: Tightly bound magnesium in erythrocyte membranes after i.v. tetrapeptide, hypertensive rats. The class given is in vivo, rat. To be noted: intravenous administration. As to the method: as §3
For assay [9], the system named is normotensive subjects. To be noted: Qu and Stuesse, 1990; cited from earlier work.

As for “9-11 Substance P: commercial preparation of amidated peptide derived from the C-terminal region of Substance P (Gly-Leu-Met-NH2; UniProt P20366 66-68, looked up, fragment) [reference compound]”, in assay [1], the “Magnesium Binding” value was 546 Nanograms of magnesium per 0.50 mg of membrane protein and 510 Nanograms of magnesium per 0.50 mg of membrane protein; the “measurable binding of magnesium ions to the erythrocyte membrane (in words)” value (shortened to “measurable binding of magnesium ions”) is on record as “no measurable activity”.

Take “Phe-Phe-Gly-Leu-Met-NH2 (FFGLM-NH2; listed as Homo sapiens) [pentapeptide]”: the “Magnesium Binding” value in assay [1] (listed as 7-11 Substance P) is 886 Nanograms of magnesium per 0.50 mg of membrane protein and 866 Nanograms of magnesium per 0.50 mg of membrane protein. In addition, in [1], the “activity relative to Substance P in promoting magnesium binding / correcting the MgBD” value is “about four times as active as Substance P; also recorded: significantly more active than Substance P; also recorded: several fold more active than Substance P”, the “approximate ratios of binding activities” value is given as roughly 3.7 and the “measurable binding of magnesium ions” value was “promoted measurable binding”. Moreover, the “effect on blood pressure of normotensive rats (in words)” value in [2] is “had no effect on systolic blood pressure”. In addition, in assay [3], the “binding of magnesium to erythrocyte membranes of hypertensive subjects after incubation (in words)” value was “returned to normal”.

“Phe-Gly-Leu-Met-NH2 (FGLM-NH2; listed as Homo sapiens) [tetrapeptide]”: the “Magnesium Binding” value in [1] (listed as 8-11 Substance P) was 968 Nanograms of magnesium per 0.50 mg of membrane protein and 954 Nanograms of magnesium per 0.50 mg of membrane protein. In assay [1], the “activity relative to Substance P in promoting magnesium binding / correcting the MgBD” value is recorded as “about four times as active as Substance P; also recorded: significantly more active than Substance P; also recorded: several fold more active than Substance P”, the “approximate ratios of binding activities” value is listed as roughly 4.6 and the “measurable binding of magnesium ions” value is given as “promoted measurable binding”. The “effect on blood pressure of hypertensive rats (in words)” value in assay [4] (SS/Jr rats, intravenous administration) is reported as “fallen to control values; also recorded: corrected; also recorded: reduced the hypertensive blood pressure of the SS/Jr rats to the normal blood pressure of their controls; also recorded: reduced its systolic blood pressure from an elevated value of 210 mm Hg to the control value”. Moreover, in assay [4] (after i.v. injection), the “time for blood pressure to fall to control values / no further decrease” value was no more than 10 min and the “time for blood pressure to return to the pre-injection level” value is no more than 60 min. Moreover, in assay [5], the “plasma glucose concentration, injected versus not injected” value is recorded as “not different”. The “effect on erythrocyte magnesium binding of control rats (in words)” value in [6] is listed as “unaffected; also recorded: had no influence”. Moreover, the “plasma glucose concentration, injected versus not injected” value in [7] was “not different”. Further, the “correction of the magnesium binding defect in erythrocytes (in words)” value in [8] is reported as “corrected; also recorded: corrects the magnesium binding defect”. For the same substance, the “effect on blood pressure of normotensive rats (in words)” value in assay [2] is “unaffected; also recorded: had no influence; also recorded: did not affect the blood pressures; also recorded: had no effect on systolic blood pressure”. In assay [3], the “binding of magnesium to erythrocyte membranes of hypertensive subjects after incubation (in words)” value is listed as “returned to normal”.

As for “Arg-Pro-Lys-Pro-Gln-Gln-Phe-Phe-Gly-Leu-Met-NH2 [Substance P, reference compound]”, in assay [1], the “approximate ratios of binding activities” value is on record as roughly 1.1 and the “measurable binding of magnesium ions” value is “promoted measurable binding”. Further, in assay [9], the “effect of intravenously injected Substance P on blood pressure” value is “the reduction in blood pressure resulted in lower than normal values”.

As for “1-9 Substance P: commercial preparation of amidated peptide derived from the N-terminal region of Substance P (RPKPQQFFG-NH2; UniProt P20366 58-66, looked up, fragment) [reference compound]”, in assay [1], the “Magnesium Binding” value is 500 Nanograms of magnesium per 0.50 mg of membrane protein and 490 Nanograms of magnesium per 0.50 mg of membrane protein; the “measurable binding of magnesium ions” value is reported as “no measurable activity”.

(Values after US20040171093A1, “Methods for detecting deficient cellular membrane tightly bound magnesium for disease diagnoses” (priority 1999, published 2004).)
